The values that follow come from patent US12285393B2, “Roles of modulators of intersectin-Cdc42 signaling in Alzheimer's disease” (priority 2017, dated 2025).

The test system of data set [1] is amyloid deposits. The experiment in a line: Amyloid deposition in the hippocampus (antibody 4G8 immunostaining). In kind it is in vivo, mice. Conditions: for amyloid deposits in the hippocampus: 3×Tg AD mice (untreated: average of 4); for amyloid deposition in the hippocampus: WT mice. The method, then: Tissue preparation: Mice were deeply anesthetized with 3% isoflourane vapor and euthanized by cervical dislocation. Brain tissues were harvested, and then either snap frozen for Western Blot analysis or fixed in 4% paraformaldehyde overnight for immunohistochemistry (IHC) analysis. Fixed brain tissues were washed with phosphate-buffered saline (PBS) and moved to cryoprotectant (30% sucrose in PBS) at 4° C. Once sunk in the cryoprotectant, brain tissues were subsequently embedded in the optimal cutting temperature compound (O.C.T) and rapidly frozen with chilled isopentane. Then, 8˜30 μm thickness of cryostate section was applied to brain tissues, 30 μm sections were immersed in the PBS and store at 4° C. refrigerator, and 8 μm sections were store at −80° C. refrigerator.
Immunohistochemistry analysis: All sections were first treated with 1% H2O2 in PBS for 20 minutes at room temperature, then incubated with 0.5% Triton X-100 for 30 minutes and blocked for 30 minutes at room temperature. Brain tissues were incubated with primary antibodies from Table 6, below. […] All sections were eventually dehydrated in 95% ethanol and mounted on coverslips for light microscopy (Carl Zeiss, Thornwood, New York, United States of America).
Methods: Brain tissues collected from each treatment group of mice from the behavior studies were subjected to pathological analysis (e.g., immunohistochemical analysis, as described above in Example 5). […] Growth cone dynamics and spine motility were either recorded with time-lapse microscopy or stained by using the fluorescein isothiocyanate (FITC) or Cyanine Dye 3 (Cy3)-conjugated Phalloidin.

In data set [2] the test system is mice. In words: Long-term survival after one injection. In kind it is in vivo. The following applies: mouse, in vivo. The method, then:
Long-term Survival. Groups of 10 mice were treated with one injection of ZCL278 (up to 0.8 mg/g), ZCL279 (up to 0.6 mg/g), or ZCL367 (up to 1.6 mg/g) to examine potential lethal dosage (the maximal dosage tested when no mice died). […] Durations longer than 3 months have not been tested. As a reference, working dosage for the behavioral assessment described below used 20 ug/g for injection, […] than the highest dosage of 0.8 mg/g tested in the long-term survival experiment.

Data set [3] has as its system WT and 3×Tg-AD mice. In words: Eyeblink classical conditioning test. The class given is in vivo. The source says:
Six-month-old C57/BL6 (WT) and 3×Tg-AD mice with an average weight of 24 g from Jackson Laboratory (Bar Harbor, Maine, United States of America) were used. The 3×Tg-AD mice in hybrid 129/C57BL/6 background contain two mutant human transgenes, hAPP harboring Swedish mutation (hAPPswe) and mutant htau (htau301L) under a neuron-specific promoter, and also contain the knock-in mutant presenilin 1 (PS1M146V). See Oddo et al. (2003) Neuron 39:409-421). 3×Tg-AD mice were received from Jackson Laboratory as Psen1 B6:129-Psen1<tmMpm>Tg(APPSwetauP301L)1Lfa/J and the wild type control as SF2: (B6129SF1/J+p+Tyr-c+Mgf-SIJ)F2. All mice were subjected to two weeks of training for familiarizing behavioral test procedures. Subsequently, mice were assayed to establish a baseline of behavior tests before ZCL compound treatment. Then, mice were separated into three treatment groups (Control, ZCL278 and ZCL279). Both ZCL278 and ZCL279 were dissolved in sesame oil with 5% DMSO and each treatment was administrated via an intraperitoneal injection. All treatment groups of mice were treated once a week. Control group was treated with 130 μl 5% DMSO in sesame oil. ZCL278 and ZCL279 groups were treated with 20 μg/g ZCL 278 or ZCL 279 in sesame oil (5% DMSO). On the day following drug treatment, all mice were subjected to a burrowing test, nesting test and contact avoidance evaluations. On the 4th week of experiment, selected female mice from each group were submitted to Morris water maze test and eye blink test.
Eye blinking test: Eyeblink classical conditioning (ECC) behavior testing was performed based on a method described previously. See Rufer et al., PLoS One, 2012, 7(10):e47499; and Thomas & Tran, Hippocampus, 2012, 22:619-630. Briefly, the day after ZCL compound treatment, two stainless steel recording electrodes (3T, Medwire, Mount Vernon, New York, United States of America) were implanted in the left orbicularis oculi muscle in all mice, and a bipolar stimulating electrode adjacent to the left eye. […]

For data set [4], the target named is Cdc42 (Homo sapiens, UniProt P60953). In words: mant-GTP binding to Cdc42 with or without GEF/DH domain. The following applies: 5-500 μM. Also on record: purchased Cytoskeleton Inc. In kind it is biochemical. The method, then:
Cdc42 (1 μM) was incubated with mant-GTP (1.5 μM) and varying concentrations of ZCL278, ZCL279, or ZCL367 (5-500 μM). Fluorescent readings were taken every minute for 10 m to acquire the baseline. The GEF/DH domain (0.08-0.2 μM) was added followed by readings taken every minute for another 30 m. The linear phase was calculated from within the time period of 12-22 m. Cdc42 (1 μM) was incubated with mant-GTP (1.5 μM) and varying concentrations of ZCL278, ZCL279, or ZCL367 (5-500 μM). Fluorescent readings were taken every minute for 30 m to monitor the binding of mant-GTP in the absence of GEF/DH domain.

Chain of Cdc42 (P60953 whole entry, the tested form may be a part): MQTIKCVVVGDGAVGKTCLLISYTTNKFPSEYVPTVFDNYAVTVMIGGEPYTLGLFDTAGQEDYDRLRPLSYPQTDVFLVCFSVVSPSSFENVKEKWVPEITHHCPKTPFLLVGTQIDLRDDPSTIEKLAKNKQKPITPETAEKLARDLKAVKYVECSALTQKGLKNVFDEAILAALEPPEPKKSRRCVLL

Turning to `Cc1cc(C)nc(NS(=O)(=O)c2ccc(NC(=S)NC(=O)COc3ccc(Br)cc3Cl)cc2)n1` [ZCL278, 4-(3-(2-(4-bromo-2-chloro-phenoxy)-acetyl)-thioureido)-N-(4,6-dimethylpyrimidin-2-yl)-benzenesulfonamide], in data set [1], the “amyloid deposits in the hippocampus” value was “no amyloid deposits” and the “amyloid deposition in the hippocampus” value was “No amyloid deposition”. For the same compound, in data set [2], the “Lethal Dosage” value came out at 0.8 mg/g and the “Longest Dosing Duration” value came to 3 months. Also, in data set [3] (WT mice), the CR percentage result is recorded as “did not significantly change”. For the same compound, the “effect on Cdc42 (mant-GTP binding)” value in data set [4] (in the absence of GEF domain) is given as “activates Cdc42”. The “effect on Cdc42 (mant-GTP binding)” value in data set [4] (in the presence of GEF domain) is recorded as “acts as an inhibitor”.

As for `O=S(=O)(Nc1ccccc1O)c1ccc2oc3ccc(S(=O)(=O)Nc4ccccc4O)cc3c2c1` [ZCL279, N^2,N^8-bis(2-hydroxyphenyl)dibenzo[b,d]furan-2,8-disulfonamide], in data set [1], the “amyloid deposits in the hippocampus” value is “no amyloid deposits” and the “amyloid deposition in the hippocampus” value is “No amyloid deposition”. Besides, in data set [2], the “Lethal Dosage” value is on record as 0.6 mg/g and the “Longest Dosing Duration” value is given as 3 months. The CR percentage result in data set [3] (AD mice, after 6 training sessions (control AD mice about 20%)) was “about 35%”. Besides, the CR percentage entry in data set [3] (WT mice) was “did not significantly change”. Also, the “effect on Cdc42 (mant-GTP binding)” value in data set [4] (in the absence of GEF domain) is “has no effect”. The “effect on Cdc42 (mant-GTP binding)” value in data set [4] (in the presence of GEF domain) is given as “activates Cdc42”.
